In US20170190671A1, “BIS(ARYL)CATECHOL DERIVATIVES AS HERBICIDES” (E I DU PONT DE NEMOURS AND COMPANY, priority 2014, published 2017):

Tests used:
Format in all cases: in vivo
[1] = system: pigweed (Amaranthus retroflexus); test: Test C preemergence; settings: Amaranthus retroflexus, pre-emergence, 336 h, preemergence, scale 0 to 100, read-out: Plant response rating, Pigweed
Procedure, shortened: (§1)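 Greenhouse test, preemergence on seeded soil or postemergence on 1- to 4-leaf plants. Response is a visual 0-100 rating versus controls, taken 13-15 days after treatment.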

[2] = system: morningglory (Ipomoea coccinea); test: Test C preemergence; settings: Ipomoea, pre-emergence, 336 h, preemergence, scale 0 to 100, read-out: Plant response rating, Morningglory
Procedure, shortened: as §1

[3] = system: johnsongrass (Sorghum halepense); test: Test C preemergence; settings: Sorghum halepense, pre-emergence, 336 h, preemergence, scale 0 to 100, read-out: Plant response rating, Johnsongrass
Procedure, shortened: as §1

[4] = system: oilseed rape (Brassica napus); test: Test C postemergence; settings: Brassica napus, post-emergence, Postemergence, scale 0 to 100, read-out: Plant response rating, Oilseed Rape
Procedure, shortened: as §1

[5] = system: yellow nutsedge (Cyperus esculentus); test: Test C postemergence; settings: Cyperus, post-emergence, 336 h, Postemergence, scale 0 to 100, read-out: Plant response rating, Nutsedge, Yellow
Procedure, shortened: as §1

[6] = system: chickweed (common chickweed, Stellaria media); test: Test C postemergence; settings: Stellaria media, post-emergence, Postemergence, scale 0 to 100, read-out: Plant response rating, Chickweed
Procedure, shortened: as §1

[7] = system: pigweed (Amaranthus retroflexus); test: Test C postemergence; settings: Amaranthus retroflexus, post-emergence, 336 h, Postemergence, scale 0 to 100, read-out: Plant response rating, Pigweed
Procedure, shortened: as §1

[8] = system: large (Lg) crabgrass (Digitaria sanguinalis); test: Test C postemergence; settings: Digitaria sanguinalis, post-emergence, 336 h, Postemergence, scale 0 to 100, read-out: Plant response rating, Crabgrass, Large
Procedure, shortened: as §1

corn (Zea mays) = test: Test C postemergence; settings: Zea mays, post-emergence, 336 h, Postemergence, scale 0 to 100
Procedure, shortened: as §1

[9] = system: morningglory (Ipomoea coccinea); test: Test C postemergence; settings: Ipomoea, post-emergence, 336 h, Postemergence, scale 0 to 100, read-out: Plant response rating, Morningglory
Procedure, shortened: as §1

[10] = system: lambsquarters (Chenopodium album); test: Test C postemergence; settings: Chenopodium album, post-emergence, 336 h, Postemergence, scale 0 to 100, read-out: Plant response rating, Lambsquarters
Procedure, shortened: as §1

[11] = system: barnyardgrass (Echinochloa crus-galli); test: Test C postemergence; settings: Echinochloa crus-galli, post-emergence, Postemergence, scale 0 to 100, read-out: Plant response rating, Barnyardgrass
Procedure, shortened: as §1

[12] = system: ragweed (common ragweed, Ambrosia elatior); test: Test C postemergence; settings: Ambrosia artemisiifolia, post-emergence, 336 h, Postemergence, scale 0 to 100, read-out: Plant response rating, Ragweed
Procedure, shortened: as §1

[13] = system: velvetleaf (Abutilon theophrasti); test: Test C postemergence; settings: Abutilon theophrasti, post-emergence, Postemergence, scale 0 to 100, read-out: Plant response rating, Velvetleaf
Procedure, shortened: as §1

kochia (Kochia scoparia) = test: Test C postemergence; settings: Bassia scoparia, post-emergence, Postemergence, scale 0 to 100, read-out: Plant response rating, Kochia
Procedure, shortened: as §1

[14] = system: giant foxtail (Setaria faberii); test: Test C postemergence; settings: Setaria faberi, post-emergence, 336 h, Postemergence, scale 0 to 100, read-out: Plant response rating, Foxtail, Giant
Procedure, shortened: as §1

[15] = system: blackgrass (Alopecurus myosuroides); test: Test C postemergence; settings: Alopecurus myosuroides, post-emergence, 336 h, Postemergence, scale 0 to 100, read-out: Plant response rating, Blackgrass
Procedure, shortened: as §1

[16] = system: johnsongrass (Sorghum halepense); test: Test C postemergence; settings: Sorghum halepense, post-emergence, 336 h, Postemergence, scale 0 to 100, read-out: Plant response rating, Johnsongrass
Procedure, shortened: as §1

soybean (Glycine max) = test: Test C postemergence; settings: Glycine max, post-emergence, Postemergence, scale 0 to 100, read-out: Plant response rating, Soybean
Procedure, shortened: as §1

[17] = system: waterhemp (common waterhemp, Amaranthus rudis); test: Test C postemergence; settings: Amaranthus tuberculatus, post-emergence, Postemergence, scale 0 to 100, read-out: Plant response rating, Waterhemp
Procedure, shortened: as §1

[18] = system: winter wheat (Triticum aestivum); test: Test C postemergence; settings: Triticum aestivum, post-emergence, 336 h, Postemergence, scale 0 to 100, read-out: Plant response rating, Wheat
Procedure, shortened: as §1

[19] = system: galium (catchweed bedstraw, Galium aparine); test: Test C postemergence; settings: Galium, post-emergence, 336 h, Postemergence, scale 0 to 100, read-out: Plant response rating, Galium
Procedure, shortened: as §1

## Clc1cnc(Oc2cccc(Cl)c2Oc2ncc(Br)cn2)nc1 [Compound 17, 5-bromo-2-[2-chloro-6-[(5-chloro-2-pyrimidinyl)oxy]phenoxy]pyrimidine]
[1]; 31 g ai/ha
  pest or weed control at 31 g/ha: 100%
[1]; 62 g ai/ha
  pest or weed control at 62 g/ha: 100%
[1]; 125 g ai/ha
  pest or weed control at 125 g/ha: 100%
[2]; 31 g ai/ha
  pest or weed control at 31 g/ha: 40%
[2]; 62 g ai/ha
  pest or weed control at 62 g/ha: 60%
[2]; 125 g ai/ha
  pest or weed control at 125 g/ha: 98%
[3]; 31 g ai/ha
  pest or weed control at 31 g/ha: 10%
[3]; 62 g ai/ha
  pest or weed control at 62 g/ha: 50%
[3]; 125 g ai/ha
  pest or weed control at 125 g/ha: 85%
[4]; 31 g ai/ha
  plant injury at 31 g/ha: 50%
[4]; 62 g ai/ha
  plant injury at 62 g/ha: 50%
[4]; 125 g ai/ha
  plant injury at 125 g/ha: 80%
[4]; 250 g ai/ha
  plant injury at 250 g/ha: 40%
[5]; 31 g ai/ha
  pest or weed control at 31 g/ha: 5%
[5]; 62 g ai/ha
  pest or weed control at 62 g/ha: 5%
[5]; 125 g ai/ha
  pest or weed control at 125 g/ha: 5%
[5]; 250 g ai/ha
  pest or weed control at 250 g/ha: 20%
[6]; 31 g ai/ha
  pest or weed control at 31 g/ha: 40%
[6]; 62 g ai/ha
  pest or weed control at 62 g/ha: 70%
[6]; 125 g ai/ha
  pest or weed control at 125 g/ha: 60%
[6]; 250 g ai/ha
  pest or weed control at 250 g/ha: 85%
[7]; 31 g ai/ha
  pest or weed control at 31 g/ha: 90%
[7]; 62 g ai/ha
  pest or weed control at 62 g/ha: 95%
[7]; 125 g ai/ha
  pest or weed control at 125 g/ha: 98%
[7]; 250 g ai/ha
  pest or weed control at 250 g/ha: 98%
[8]; 31 g ai/ha
  pest or weed control at 31 g/ha: 5%
[8]; 62 g ai/ha
  pest or weed control at 62 g/ha: 5%
[8]; 125 g ai/ha
  pest or weed control at 125 g/ha: 10%
[8]; 250 g ai/ha
  pest or weed control at 250 g/ha: 10%
Corn (Zea mays); 31 g ai/ha
  Corn plant response rating (crop injury, 0 = no effect, 100 = complete kill) at 31 g/ha: 5%
Corn (Zea mays); 62 g ai/ha
  Corn plant response rating (crop injury, 0 = no effect, 100 = complete kill) at 62 g/ha: 20%
Corn (Zea mays); 125 g ai/ha
  Corn plant response rating (crop injury, 0 = no effect, 100 = complete kill) at 125 g/ha: 20%
Corn (Zea mays); 250 g ai/ha
  Corn plant response rating (crop injury, 0 = no effect, 100 = complete kill) at 250 g/ha: 15%
[9]; 31 g ai/ha
  pest or weed control at 31 g/ha: 90%
[9]; 62 g ai/ha
  pest or weed control at 62 g/ha: 90%
[9]; 125 g ai/ha
  pest or weed control at 125 g/ha: 85%
[9]; 250 g ai/ha
  pest or weed control at 250 g/ha: 70%
[10]; 31 g ai/ha
  pest or weed control at 31 g/ha: 80%
[10]; 62 g ai/ha
  pest or weed control at 62 g/ha: 70%
[10]; 125 g ai/ha
  pest or weed control at 125 g/ha: 90%
[10]; 250 g ai/ha
  pest or weed control at 250 g/ha: 95%
[11]; 31 g ai/ha
  pest or weed control at 31 g/ha: 5%
[11]; 62 g ai/ha
  pest or weed control at 62 g/ha: 5%
[11]; 125 g ai/ha
  pest or weed control at 125 g/ha: 10%
[11]; 250 g ai/ha
  pest or weed control at 250 g/ha: 10%
[12]; 31 g ai/ha
  pest or weed control at 31 g/ha: 50%
[12]; 62 g ai/ha
  pest or weed control at 62 g/ha: 45%
[12]; 125 g ai/ha
  pest or weed control at 125 g/ha: 60%
[12]; 250 g ai/ha
  pest or weed control at 250 g/ha: 55%
[13]; 31 g ai/ha
  pest or weed control at 31 g/ha: 30%
[13]; 62 g ai/ha
  pest or weed control at 62 g/ha: 35%
[13]; 125 g ai/ha
  pest or weed control at 125 g/ha: 40%
[13]; 250 g ai/ha
  pest or weed control at 250 g/ha: 70%
Kochia (Kochia scoparia); 31 g ai/ha
  pest or weed control at 31 g/ha: 90%
Kochia (Kochia scoparia); 62 g ai/ha
  pest or weed control at 62 g/ha: 90%
Kochia (Kochia scoparia); 125 g ai/ha
  pest or weed control at 125 g/ha: 95%
Kochia (Kochia scoparia); 250 g ai/ha
  pest or weed control at 250 g/ha: 95%
[14]; 31 g ai/ha
  pest or weed control at 31 g/ha: 5%
[14]; 62 g ai/ha
  pest or weed control at 62 g/ha: 15%
[14]; 125 g ai/ha
  pest or weed control at 125 g/ha: 10%
[14]; 250 g ai/ha
  pest or weed control at 250 g/ha: 40%
[15]; 31 g ai/ha
  pest or weed control at 31 g/ha: 5%
[15]; 62 g ai/ha
  pest or weed control at 62 g/ha: 5%
[15]; 125 g ai/ha
  pest or weed control at 125 g/ha: 15%
[15]; 250 g ai/ha
  pest or weed control at 250 g/ha: 15%
[16]; 31 g ai/ha
  pest or weed control at 31 g/ha: 5%
[16]; 62 g ai/ha
  pest or weed control at 62 g/ha: 5%
[16]; 125 g ai/ha
  pest or weed control at 125 g/ha: 5%
[16]; 250 g ai/ha
  pest or weed control at 250 g/ha: 10%
Soybean (Glycine max); 31 g ai/ha
  plant injury at 31 g/ha: 55%
Soybean (Glycine max); 62 g ai/ha
  plant injury at 62 g/ha: 80%
Soybean (Glycine max); 125 g ai/ha
  plant injury at 125 g/ha: 90%
Soybean (Glycine max); 250 g ai/ha
  plant injury at 250 g/ha: 90%
[17]; 31 g ai/ha
  pest or weed control at 31 g/ha: 90%
[17]; 62 g ai/ha
  pest or weed control at 62 g/ha: 95%
[17]; 125 g ai/ha
  pest or weed control at 125 g/ha: 95%
[17]; 250 g ai/ha
  pest or weed control at 250 g/ha: 98%
[18]; 31 g ai/ha
  plant injury at 31 g/ha: 0%
[18]; 62 g ai/ha
  plant injury at 62 g/ha: 0%
[18]; 125 g ai/ha
  plant injury at 125 g/ha: 0%
[18]; 250 g ai/ha
  plant injury at 250 g/ha: 0%
[19]; 31 g ai/ha
  pest or weed control at 31 g/ha: 70%
[19]; 62 g ai/ha
  pest or weed control at 62 g/ha: 80%
[19]; 125 g ai/ha
  pest or weed control at 125 g/ha: 90%
[19]; 250 g ai/ha
  pest or weed control at 250 g/ha: 95%
